Source: patent US8940756B2, “Dihydronaphthyridines and related compounds useful as kinase inhibitors for the treatment of proliferative diseases” (Deciphera Pharmaceuticals, Inc., priority 2012, dated 2015)

Assays:
[1] = target: T1, c-KIT kinase (Seq ID no. 1) (Homo sapiens, UniProt P10721); assay: c-KIT Kinase Assay (pyruvate kinase/lactate dehydrogenase coupled); format: biochemical; conditions: enzymatic assay, ATP 200 μM; read-out: KIT (wt)
T1 construct: GST (N); TEV cleavage site (N); purchased deCODE Biostructures
Procedure: In this assay, the oxidation of NADH (measured by decrease in absorbance at 340 nm) was continuously monitored spectrophotometrically. […] The absorption at 340 nm was monitored continuously for 2 hours at 30° C. on Synergy 2 (BioTeK). The reaction rate was calculated using the 0 to 1 h time frame. Percent inhibition was obtained by comparison of reaction rate with that of a control (i.e. with no test compound). IC50 values were calculated from a series of percent inhibition values determined at a range of inhibitor concentrations using software routines as implemented in the GraphPad Prism software package. The protein construct was prepared by deCODE Biostructures using procedures known in the art. The construct contains […] of cKit, an N-terminal tag, a GST-fusion sequence and a TEV cleavage site.

[2] = target: T2, c-KIT T670I kinase (Seq ID no. 6) (Homo sapiens, UniProt P10721, T670I); assay: c-KIT T670I Kinase Assay; format: biochemical; conditions: enzymatic assay, ATP 200 uM
T2 construct: GST (N); TEV cleavage site (N); purchased deCODE Biostructures
Procedure: In this assay, the oxidation of NADH (measured by decrease in absorbance at 340 nm) was continuously monitored spectrophotometrically. […] The inhibition reaction was started by mixing serial diluted test compound with the above reaction mixture. The absorption at 340 nm was monitored continuously for 5 hours at 30° C. on Synergy 2 plate reader (BioTech). […] The protein construct was prepared by deCODE Biostructures using procedures known in the art. The construct contains […] of cKit, an N-terminal tag, a GST-fusion sequence and a TEV cleavage site. This construct is identical to Seq ID no.

[3] = target: T3, c-KIT D816V kinase (Seq ID no. 4) (Homo sapiens, UniProt P10721, D816V); assay: c-KIT D816V kinase Assay; format: biochemical; conditions: enzymatic assay, ATP 200 uM
T3 construct: D816V c-KIT (residues T544-V976 with N-terminal GST fusion, 16 nM); purchased deCODE Biostructures
Procedure: In this assay, the oxidation of NADH (measured by decrease in absorbance at 340 nm) was continuously monitored spectrophotometrically. […] The inhibition reaction was started by mixing serial diluted test compound with the above reaction mixture. The absorption at 340 nm was monitored continuously for 5 hours at 30° C. on Synergy 2 plate reader (BioTech).
The protein construct was prepared by deCODE Biostructures using procedures known in the art. The construct contains residues T544-V976 of cKit, an N-terminal tag, a GST-fusion sequence and a TEV cleavage site. This construct is identical to Seq ID no. 1 except for the D816V mutation.

[4] = target: Phospho-KIT (Tyr719) in GIST48 cells (Homo sapiens, UniProt P10721); assay: GIST48 KIT Western Blot; format: cell-based; conditions: 4 hours, read-out: pKIT suppression by western blot analysi GIST48
Procedure: (§1) GIST48, GIST430, and GIST882 cells were obtained from J. Fletcher (Brigham and Women's Hospital, Boston, Mass.). GIST T1 cells were obtained from B. Rubin (Cleveland Clinic, Cleveland, Ohio) and Professor Takahiro Taguchi (Kochi Medical School, Nankoku, Kochi, Japan). […] GIST430 cells were grown in Ham's F10 medium supplemented with 15% characterized fetal bovine serum (Invitrogen, Carlsbad, Calif.), 30 mg/L bovine pituitary extract (BD Biosciences, San Jose, Calif.), 0.5% Mito+ serum extender (BD Biosciences, San Jose, Calif.), 1 unit/mL penicillin G, 1 μg/ml streptomycin, and 0.29 mg/mL L-glutamine at 37° C., 5% CO2, 95% humidity. GIST T1 cells were grown in DMEM medium supplemented with 10% characterized fetal bovine serum (Invitrogen, Carlsbad, Calif.), 1 unit/mL penicillin G, 1 ng/ml streptomycin, and 0.29 mg/mL L-glutamine at 37° C., 5% CO2, and 95% humidity. Cells were allowed to expand until reaching 70-95% confluence at which point they were subcultured or harvested for assay use.
(§2) Two hundred fifty thousand cells were added per well in a 24-well tissue-culture treated plate. Cells were then incubated overnight at 37° C., 5% CO2, 95% humidity. Medium was aspirated, cells were washed with PBS, and serum-free RPMI1640 medium was added. A serial dilution of test compound was added to plates containing cells and plates were incubated for 4 hours at 37° C., 5% CO2, 95% humidity. Cells were washed with PBS, then lysed. Cell lysates were separated by SDS-PAGE and transferred to PVDF. Phospho-KIT (Tyr719) was detected using an antibody from Cell Signaling Technology (Beverly, Mass.), ECL Plus detection reagent (GE Healthcare, Piscataway, N.J.) and a Molecular Devices Storm 840 phosphorimager in fluorescence mode. Blots were stripped and probed for total KIT using an antibody from Santa Cruz Biotech (Santa Cruz, Calif.). IC50 values were calculated using Prism software (Graphpad, San Diego, Calif.).

[5] = target: Phospho-KIT (Tyr719) in GIST430 cells (Homo sapiens, UniProt P10721); assay: GIST430 KIT Western Blot; format: cell-based; conditions: 4 hours, read-out: pKIT suppression by western blot analysi GIST430
Procedure: as §1
as §2, with “One” for “Two”, “Ham's F10” for “RPMI1640”

Sequence of Phospho-KIT (Tyr719) in GIST48 cells (P10721 whole entry V560D/D820A, form open): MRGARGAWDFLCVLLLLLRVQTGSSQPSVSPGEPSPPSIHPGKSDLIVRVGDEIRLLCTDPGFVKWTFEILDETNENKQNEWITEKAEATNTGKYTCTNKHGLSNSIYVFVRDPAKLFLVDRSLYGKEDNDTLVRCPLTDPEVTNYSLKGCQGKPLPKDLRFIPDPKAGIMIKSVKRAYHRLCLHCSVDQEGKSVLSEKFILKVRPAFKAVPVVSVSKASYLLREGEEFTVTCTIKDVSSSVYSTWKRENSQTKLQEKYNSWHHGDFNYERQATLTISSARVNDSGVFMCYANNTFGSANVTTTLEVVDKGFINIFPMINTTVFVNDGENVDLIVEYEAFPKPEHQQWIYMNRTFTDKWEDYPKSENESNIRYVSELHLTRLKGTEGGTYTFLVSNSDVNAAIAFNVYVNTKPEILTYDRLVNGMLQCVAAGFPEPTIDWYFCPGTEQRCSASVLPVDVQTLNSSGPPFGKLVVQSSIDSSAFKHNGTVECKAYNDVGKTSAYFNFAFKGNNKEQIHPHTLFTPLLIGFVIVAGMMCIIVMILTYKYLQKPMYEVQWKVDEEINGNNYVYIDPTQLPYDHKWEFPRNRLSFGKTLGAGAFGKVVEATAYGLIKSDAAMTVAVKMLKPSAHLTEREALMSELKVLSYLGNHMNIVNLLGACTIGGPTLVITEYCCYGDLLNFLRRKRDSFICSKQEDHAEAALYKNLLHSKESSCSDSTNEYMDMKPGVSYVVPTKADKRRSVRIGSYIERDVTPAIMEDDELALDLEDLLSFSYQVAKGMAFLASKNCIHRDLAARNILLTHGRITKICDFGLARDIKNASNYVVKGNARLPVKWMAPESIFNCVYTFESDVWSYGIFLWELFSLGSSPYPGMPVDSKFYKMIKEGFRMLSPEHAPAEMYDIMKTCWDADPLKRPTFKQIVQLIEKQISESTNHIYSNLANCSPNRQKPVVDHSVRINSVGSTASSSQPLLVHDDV
Sequence of Phospho-KIT (Tyr719) in GIST430 cells (P10721 with tags, fused parts or gaps DEL560-576/V654A, form open): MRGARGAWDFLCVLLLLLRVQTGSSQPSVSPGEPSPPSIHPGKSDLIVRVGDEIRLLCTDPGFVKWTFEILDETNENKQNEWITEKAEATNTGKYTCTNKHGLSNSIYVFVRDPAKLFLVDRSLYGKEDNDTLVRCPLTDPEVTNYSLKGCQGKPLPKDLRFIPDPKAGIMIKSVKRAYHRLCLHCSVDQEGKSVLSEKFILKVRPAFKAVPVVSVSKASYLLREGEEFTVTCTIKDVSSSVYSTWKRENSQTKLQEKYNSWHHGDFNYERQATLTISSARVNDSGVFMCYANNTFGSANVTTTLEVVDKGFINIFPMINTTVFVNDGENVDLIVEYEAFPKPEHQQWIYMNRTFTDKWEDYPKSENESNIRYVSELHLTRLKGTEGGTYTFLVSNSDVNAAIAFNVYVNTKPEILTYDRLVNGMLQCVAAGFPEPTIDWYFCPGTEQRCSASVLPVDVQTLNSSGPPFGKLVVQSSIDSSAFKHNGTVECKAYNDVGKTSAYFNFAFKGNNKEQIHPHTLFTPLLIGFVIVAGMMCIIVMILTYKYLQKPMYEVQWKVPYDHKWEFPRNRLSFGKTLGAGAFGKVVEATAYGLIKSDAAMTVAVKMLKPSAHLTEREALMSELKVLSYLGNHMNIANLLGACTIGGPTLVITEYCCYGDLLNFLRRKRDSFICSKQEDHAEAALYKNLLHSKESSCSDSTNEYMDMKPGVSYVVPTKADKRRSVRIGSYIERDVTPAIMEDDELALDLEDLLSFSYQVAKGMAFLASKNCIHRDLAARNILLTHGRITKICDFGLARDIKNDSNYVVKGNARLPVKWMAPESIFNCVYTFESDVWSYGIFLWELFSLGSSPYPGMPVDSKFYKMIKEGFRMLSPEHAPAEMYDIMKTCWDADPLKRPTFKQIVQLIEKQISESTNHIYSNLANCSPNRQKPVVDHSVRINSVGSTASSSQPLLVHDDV
T3 sequence (P10721 544-976 D816V): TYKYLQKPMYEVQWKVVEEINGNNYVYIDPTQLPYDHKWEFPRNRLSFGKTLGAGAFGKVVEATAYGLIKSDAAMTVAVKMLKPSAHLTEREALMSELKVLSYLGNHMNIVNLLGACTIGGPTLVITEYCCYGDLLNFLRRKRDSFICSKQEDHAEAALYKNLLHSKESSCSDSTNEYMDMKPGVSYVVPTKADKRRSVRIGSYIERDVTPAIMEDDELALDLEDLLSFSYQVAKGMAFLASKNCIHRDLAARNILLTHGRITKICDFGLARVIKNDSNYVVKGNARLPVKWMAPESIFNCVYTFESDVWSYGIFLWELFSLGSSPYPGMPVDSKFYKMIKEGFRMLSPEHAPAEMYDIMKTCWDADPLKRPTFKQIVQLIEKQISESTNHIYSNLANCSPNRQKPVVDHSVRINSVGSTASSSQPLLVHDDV
T1 sequence (P10721 with tags, fused parts or gaps): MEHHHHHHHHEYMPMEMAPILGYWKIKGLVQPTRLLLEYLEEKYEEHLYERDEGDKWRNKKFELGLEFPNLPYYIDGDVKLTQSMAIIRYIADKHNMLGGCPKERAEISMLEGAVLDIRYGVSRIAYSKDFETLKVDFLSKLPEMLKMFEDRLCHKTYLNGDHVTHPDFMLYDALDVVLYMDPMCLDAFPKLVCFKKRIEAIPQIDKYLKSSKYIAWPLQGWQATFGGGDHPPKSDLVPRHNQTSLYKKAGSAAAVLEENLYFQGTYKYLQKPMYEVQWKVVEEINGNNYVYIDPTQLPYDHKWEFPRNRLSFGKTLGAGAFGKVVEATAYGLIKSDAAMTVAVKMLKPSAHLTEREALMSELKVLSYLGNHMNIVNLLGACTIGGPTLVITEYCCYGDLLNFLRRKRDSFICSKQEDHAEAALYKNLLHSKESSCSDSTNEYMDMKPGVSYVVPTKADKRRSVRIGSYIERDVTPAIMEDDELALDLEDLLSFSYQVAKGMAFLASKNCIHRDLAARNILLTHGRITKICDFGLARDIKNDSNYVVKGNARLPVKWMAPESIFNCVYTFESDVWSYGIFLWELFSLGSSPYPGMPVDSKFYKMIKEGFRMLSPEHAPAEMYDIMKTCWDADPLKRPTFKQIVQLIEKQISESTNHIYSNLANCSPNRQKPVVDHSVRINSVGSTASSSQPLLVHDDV
T2 sequence (P10721 544-976 T670I): as the sequence (P10721 544-976 D816V) above, with T127I, V273D counted along it

Compound	IC50 [1] [µM]	IC50 [2] [µM]	IC50 [3] [µM]	IC50 [4] [µM]	IC50 [5] [µM]
CCn1c(=O)c(-c2cc(NC(=O)Nc3ccccc3)c(F)cc2Cl)cc2cnc(NC3CCOCC3)cc21 [Example 42, 1-(4-chloro-5-(1-ethyl-2-oxo-7-(tetrahydro-2H-pyran-4-ylamino)-1,2-dihydro-1,6-naphthyridin-3-yl)-2-fluorophenyl)-3-phenylurea]	0.01 to 0.1	0.1 to 1	0.01 to 0.1	–	–
CCn1c(=O)c(-c2cc(NC(=O)Nc3ccccc3)c(F)cc2Cl)cc2cnc(NC3CCN(C)CC3)cc21 [Example 46, 1-(4-chloro-5-(1-ethyl-7-(1-methylpiperidin-4-ylamino)-2-oxo-1,2-dihydro-1,6-naphthyridin-3-yl)-2-fluorophenyl)-3-phenylurea]	0.01 to 0.1	> 1	0.1 to 1	–	–
CCn1c(=O)c(-c2cc(NC(=O)Nc3csc4ccccc34)c(F)cc2C)cc2cnc(NC)cc21 [Example 59, 1-(benzo[b]thiophen-3-yl)-3-(5-(1-ethyl-7-(methylamino)-2-oxo-1,2-dihydro-1,6-naphthyridin-3-yl)-2-fluoro-4-methylphenyl)urea]	–	–	–	0.01 to 0.1	0.01 to 0.1
CCn1c(=O)c(-c2cc(NC(=O)Nc3cc(F)cc(F)c3)c(F)cc2C)cc2cnc(NC)cc21 [Example 60, 1-(3,5-difluorophenyl)-3-(5-(1-ethyl-7-(methylamino)-2-oxo-1,2-dihydro-1,6-naphthyridin-3-yl)-2-fluoro-4-methylphenyl)urea]	–	–	–	> 1	0.01 to 0.1
CCn1c(=O)c(-c2cc(NC(=O)Nc3cc(F)ccc3F)c(F)cc2C)cc2cnc(NC)cc21 [Example 61, 1-(2,5-difluorophenyl)-3-(5-(1-ethyl-7-(methylamino)-2-oxo-1,2-dihydro-1,6-naphthyridin-3-yl)-2-fluoro-4-methylphenyl)urea]	–	–	–	> 1	0.01 to 0.1
CCn1c(=O)c(-c2cc(NC(=O)Nc3cc(F)cc(F)c3)c(F)cc2F)cc2cnc(NC)cc21 [Example 63]	–	–	–	0.1 to 1	0.01 to 0.1
CCn1c(=O)c(-c2cc(NC(=O)Nc3cc(F)cc(F)c3)c(F)cc2Cl)cc2cnc(NC(C)=O)cc21 [Example 67, N-(3-(2-chloro-5-(3-(3,5-difluorophenyl)ureido)-4-fluorophenyl)-1-ethyl-2-oxo-1,2-dihydro-1,6-naphthyridin-7-yl)acetamide]	–	–	–	< 0.01	< 0.01
CCn1c(=O)c(-c2cc(NC(=O)Nc3cc(F)ccc3F)c(F)cc2Cl)cc2cnc(NC)cc21 [Example 68, 1-(4-chloro-5-(1-ethyl-7-(methylamino)-2-oxo-1,2-dihydro-1,6-naphthyridin-3-yl)-2-fluorophenyl)-3-(2,5-difluorophenyl)urea]	–	–	–	0.1 to 1	0.01 to 0.1
CCn1c(=O)c(-c2cc(NC(=O)Nc3ccccc3)c(F)cc2Cl)cc2cnc(NC(=O)N(C)C)cc21 [Example 70, 3-(3-(2-chloro-4-fluoro-5-(3-phenylureido)phenyl)-1-ethyl-2-oxo-1,2-dihydro-1,6-naphthyridin-7-yl)-1,1-dimethylurea]	–	–	–	0.01 to 0.1	< 0.01
CCn1c(=O)c(-c2cc(NC(=O)Nc3ccccc3)c(F)cc2Cl)cc2cnc(NC(=O)OC)cc21 [Example 73, methyl (3-(2-chloro-4-fluoro-5-(3-phenylureido)phenyl)-1-ethyl-2-oxo-1,2-dihydro-1,6-naphthyridin-7-yl)carbamate]	–	–	–	0.01 to 0.1	0.01 to 0.1
CNc1cc2c(cn1)cc(-c1cc(NC(=O)Nc3cccc(F)c3)c(F)cc1Cl)c(=O)n2C(C)C [Example 77, 1-(4-chloro-2-fluoro-5-(1-isopropyl-7-(methylamino)-2-oxo-1,2-dihydro-1,6-naphthyridin-3-yl)phenyl)-3-(3-fluorophenyl)urea]	–	–	–	0.01 to 0.1	0.01 to 0.1
CCn1c(=O)c(-c2cc(NC(=O)Nc3ccccc3)c(F)cc2Cl)cc2cnc(NC(=O)N3CC(O)C3)cc21 [Example 81, N-(3-(2-chloro-4-fluoro-5-(3-phenylureido)phenyl)-1-ethyl-2-oxo-1,2-dihydro-1,6-naphthyridin-7-yl)-3-hydroxyazetidine-1-carboxamide]	–	–	–	0.01 to 0.1	0.01 to 0.1
CCn1c(=O)c(-c2cc(NC(=O)Nc3ccccc3)c(F)cc2Cl)cc2cnc(NC(=O)N3CC[C@@H](N(C)C)C3)cc21 [Example 84, (R)—N-(3-(2-chloro-4-fluoro-5-(3-phenylureido)phenyl)-1-ethyl-2-oxo-1,2-dihydro-1,6-naphthyridin-7-yl)-3-(dimethylamino)pyrrolidine-1-carboxamide]	–	–	–	0.01 to 0.1	0.01 to 0.1
CC(=O)Nc1cc2c(cn1)cc(-c1cc(NC(=O)Nc3ccccc3)c(F)cc1Cl)c(=O)n2C(C)C [Example 86, N-(3-(2-chloro-4-fluoro-5-(3-phenylureido)phenyl)-1-isopropyl-2-oxo-1,2-dihydro-1,6-naphthyridin-7-yl)acetamide]	–	–	–	< 0.01	0.01 to 0.1
CCn1c(=O)c(-c2cc(NC(=O)Nc3ccc(F)c(CN4CCN(C)CC4)c3)c(F)cc2Cl)cc2cnc(NC)cc21 [Example 87]	–	–	–	0.01 to 0.1	0.1 to 1
CCn1c(=O)c(-c2cc(NC(=O)Nc3ccccc3)c(F)cc2C)cc2cnc(NC(=O)N(C)C)cc21 [Example 101, 3-(1-ethyl-3-(4-fluoro-2-methyl-5-(3-phenylureido)phenyl)-2-oxo-1,2-dihydro-1,6-naphthyridin-7-yl)-1,1-dimethylurea]	–	–	–	> 1	0.01 to 0.1
CCn1c(=O)c(-c2cc(NC(=O)Nc3ccccc3)c(F)cc2Cl)cc2cnc(NC(=O)N3CC(N(C)C)C3)cc21 [Example 102, N-(3-(2-chloro-4-fluoro-5-(3-phenylureido)phenyl)-1-ethyl-2-oxo-1,2-dihydro-1,6-naphthyridin-7-yl)-3-(dimethylamino)azetidine-1-carboxamide]	–	–	–	0.01 to 0.1	0.01 to 0.1
CCn1c(=O)c(-c2cc(NC(=O)Nc3cc(F)cc(F)c3)c(F)cc2C)cc2cnc(NC(=O)N(C)C)cc21 [Example 108, 3-(3-(5-(3-(3,5-difluorophenyl)ureido)-4-fluoro-2-methylphenyl)-1-ethyl-2-oxo-1,2-dihydro-1,6-naphthyridin-7-yl)-1,1-dimethylurea]	–	–	–	0.1 to 1	0.01 to 0.1
